Here are results for six compounds from publication PMC9917560, “Design, Synthesis and Antimicrobial Evaluation of New N-(1-Hydroxy-1,3-dihydrobenzo[c][1,2]oxaborol-6-yl)(hetero)aryl-2-carboxamides as Potential Inhibitors of Mycobacterial Leucyl-tRNA Synthetase” (International Journal of Molecular Sciences, 2023).

Values after ≈ are worked out from the molar mass of the structure shown. Like-named read-outs stand apart in the source and are kept apart here. Marks after values point to notes of the source that are not given here.

By IC50 is commonly meant the concentration at which inhibition is half-maximal. Broadly, the melting point is the temperature, or range, at which the solid turns liquid.

The subject of data set [1] is Mtb LeuRS. Set-up: method as in PMID 27503647, PMID 28953378. Particulars: ref [13],[14]; read-out: IC50 against LeuRS; cited from earlier work.
Data set [2] concerns Mycobacterium tuberculosis H37Rv CNCTC My 331/88 (ATCC 27294). Description: Microplate Alamar Blue assay vs Mtb H37Rv. The format is cell-based. Particulars: Mycobacterium tuberculosis, pH 6.6, MABA, Middlebrook 7H9 pH 6.6, recalculated from µg/mL; read-out: MIC Mtb H37Rv.
The test system of data set [3] is Mtb MATI (MDR clinical isolate). Description: microbe, parasite or virus in culture. Type of data set: cell-based. Particulars: Mycobacterium tuberculosis, read-out: MIC Mtb MATI.
Data set [4] relates to Mtb laboratory ID MATI. The format is cell-based, Mycobacterium tuberculosis. The settings on record: strain MATI; for Concentration: CLSI 2021; for Susceptibility: CLSI breakpoints 2021.
Data set [5] has as its system Mtb laboratory ID IZAK. The format is cell-based, Mycobacterium tuberculosis. Particulars: strain IZAK; for Susceptibility: CLSI breakpoints 2020.
For data set [6], the system named is Mtb IZAK (MDR clinical isolate). Description: microbe, parasite or virus in culture. Type of data set: cell-based. The settings on record: Mycobacterium tuberculosis, read-out: MIC Mtb IZAK.
In data set [7] the test system is Acinetobacter baumannii DSM 30007 (ATCC 19606). Nature of the data set: Antibacterial microdilution broth (EUCAST). The format is cell-based. The settings on record: read-out: MIC Acinetobacter baumannii. In general terms: In broth dilution the organism is exposed to a series of concentrations in liquid medium.
Data set [8] concerns Mycolicibacterium smegmatis DSM 43,465 (ATCC 607). Nature of the data set: Antimycobacterial microdilution (resazurin) vs M. smegmatis. The settings on record: Middlebrook 7H9, resazurin, read-out: MIC M. smeg. The format is cell-based.
Data set [9] has as its system Lichtheimia corymbifera CCM 8077. Description: Antifungal microdilution broth (EUCAST). The format is cell-based. The settings on record: Lichtheimia corymbifera, CCM8077, read-out: MIC Lichtheimia corymbifera.
In data set [10] the test system is Aspergillus flavus CCM 8363. Description: Antifungal microdilution broth (EUCAST). Type of data set: cell-based. The settings on record: Aspergillus flavus, CCM8363, read-out: MIC Aspergillus flavus.
The test system of data set [11] is Aspergillus fumigatus ATCC 204305. Description: Antifungal microdilution broth (EUCAST). The settings on record: Aspergillus fumigatus, ATCC204305, read-out: MIC Aspergillus fumigatus. The format is cell-based.
Data set [12] has as its system Staphylococcus epidermidis CCM 4418 (ATCC 12228). Description: Antibacterial microdilution broth (EUCAST). The format is cell-based. The settings on record: read-out: MIC Staphylococcus epidermidis.
In data set [13] the test system is Trichophyton interdigitale CCM 8377 (ATCC 9533). Description: Antifungal microdilution broth (EUCAST). The format is cell-based. Particulars: Trichophyton interdigitale, read-out: MIC Trichophyton interdigitale.
Data set [14] deals with methicillin-resistant Staphylococcus aureus subsp. aureus (MRSA) CCM 4750 (ATCC 43300). Description: microbe, parasite or virus in culture. The format is cell-based. Particulars: read-out: MIC Methicillin-resistant Staphylococcus aureus subsp. aureus.
For data set [15], the system named is Enterococcus faecalis CCM 4224 (ATCC 29212). Description: Antibacterial microdilution broth (EUCAST). Type of data set: cell-based. Particulars: read-out: MIC Enterococcus faecalis.
For data set [16], the system named is Mycobacterium tuberculosis H37Ra ITM-M006710 (ATCC 9431). Nature of the data set: Antimycobacterial microdilution (resazurin) vs Mtb H37Ra. Type of data set: cell-based. Particulars: Middlebrook 7H9, resazurin, recalculated from µg/mL, read-out: MIC Mtb H37Ra.
The test system of data set [17] is Mycolicibacterium aurum DSM 43,999 (ATCC 23366). Nature of the data set: Antimycobacterial microdilution (resazurin) vs M. aurum. Type of data set: cell-based. The settings on record: Middlebrook 7H9, resazurin, read-out: MIC M. aurum.
Data set [18] has as its system HepG2 cell line. Description: Cytotoxicity screening, CellTiter 96 assay. The settings on record: Homo sapiens, HepG2, 24 h, read-out: IC50 HepG2.
In data set [19] the test system is Klebsiella pneumoniae CCM 4415 (ATCC 10031). Nature of the data set: Antibacterial microdilution broth (EUCAST). Type of data set: cell-based. Particulars: Klebsiella pneumoniae, read-out: MIC Klebsiella pneumoniae.
Data set [20] has as its system Staphylococcus aureus subsp. aureus CCM 4223 (ATCC 29213). Nature of the data set: Antibacterial microdilution broth (EUCAST). The format is cell-based. Particulars: read-out: MIC Staphylococcus aureus subsp. aureus.
Data set [21] deals with Candida parapsilosis CCM 8260 (ATCC 22019). Description: Antifungal microdilution broth (EUCAST). The format is cell-based. The settings on record: Lodderomyces parapsilosis, read-out: MIC Candida parapsilosis.
Data set [22] has as its system Mycobacterium kansasii DSM 44,162 (ATCC 12478). Nature of the data set: Antimycobacterial microdilution (resazurin) vs M. kansasii. The format is cell-based. The settings on record: Middlebrook 7H9, resazurin, read-out: MIC M. kansasii.
The test system of data set [23] is Candida tropicalis CCM 8264 (ATCC 750). Description: Antifungal microdilution broth (EUCAST). The format is cell-based. Particulars: read-out: MIC Candida tropicalis.
For data set [24], the system named is Candida krusei CCM 8271 (ATCC 6258). Nature of the data set: Antifungal microdilution broth (EUCAST). The format is cell-based. Particulars: Pichia kudriavzevii, read-out: MIC Candida krusei.
Data set [25] has as its system Escherichia coli CCM 3954 (ATCC 25922). Nature of the data set: Antibacterial microdilution broth (EUCAST). Particulars: Escherichia coli, read-out: MIC Escherichia coli. Type of data set: cell-based.
In data set [26] the test system is Pseudomonas aeruginosa CCM 3955 (ATCC 27853). Description: Antibacterial microdilution broth (EUCAST). Type of data set: cell-based. Particulars: read-out: MIC Pseudomonas aeruginosa.
Data set [27] relates to Mycobacterium avium DSM 44,156 (ATCC 25291). Description: Antimycobacterial microdilution (resazurin) vs M. avium. The format is cell-based. The settings on record: Mycobacterium avium, Middlebrook 7H9, resazurin; read-out: MIC M. avium.
For data set [28], the system named is Candida albicans CCM 8320 (ATCC 24433). Nature of the data set: Antifungal microdilution broth (EUCAST). The format is cell-based. The settings on record: Candida albicans, read-out: MIC Candida albicans.
The subject of data set [29] is Mtb H37Rv. Set-up: method as in PMID 27503647. The settings on record: compounds synthesized and evaluated by Palencia et al. ref [13]; cited from earlier work.

`NC[C@H]1OB(O)c2c(OCCO)ccc(Cl)c21` [GSK656, (S)-3-(Aminomethyl)-4-chloro-7-(2hydroxyethoxy)benzo c 1,2 oxaborol-1(3 H)-ol]: the 50% inhibitory concentration (IC50) in data set [1] is 0.2 µM.

As for `CC[C@@H](CO)NCCN[C@@H](CC)CO` [EMB, ethambutol], the MIC in [2] is 1.91 µM (≈ 0.39 µg/mL); in data set [3], 7.64 µM (≈ 1.56 µg/mL); in data set [6] it was 7.64 µM (≈ 1.56 µg/mL). Also, the Concentration in data set [4] and in data set [5] (CLSI 2020) was 2.45 µM each time. The Susceptibility result in data set [4] and in data set [5] was “sensitive” throughout.

Take `O=C(Nc1ccc2c(c1)B(O)OC2)c1cnc(Cl)cn1` [Compound 5, 5-chloro-N-(1-hydroxy-1,3-dihydrobenzo[c][1,2]oxaborol-6-yl)pyrazine-2-carboxamide]: the melting point was 233.8 to 235.3 °C. The MIC in data set [2] is 21.6 µM (≈ 6.25 µg/mL). The MIC in data set [7] (24h incubation) is above 500 µM. The MIC in data set [7] (48h incubation) was above 500 µM. For the same compound, in data set [8], the MIC was found to be 54 µM (≈ 15.6 µg/mL). In data set [9] (24h incubation), the MIC is above 500 µM. In addition, in data set [9] (48h incubation), the MIC is above 500 µM. Also, the MIC in data set [10] (24h incubation) was above 500 µM. The MIC in data set [10] (48h incubation) is above 500 µM. In data set [11] (24h incubation), the MIC was above 500 µM. The MIC in [11] (48h incubation) was above 500 µM. Further, the MIC in [12] (24h incubation) is above 500 µM. Besides, the MIC in data set [12] (48h incubation) was above 500 µM. In addition, the MIC in [13] (72h incubation) was above 500 µM. For the same compound, the MIC in data set [13] (120h incubation) was above 500 µM. Further, the MIC in [14] (24 h) is above 500 µM. Besides, the MIC in data set [14] (48 h) is above 500 µM. In addition, the MIC in [15] (24h incubation) is above 500 µM. The MIC in data set [15] (48h incubation) is above 500 µM. Further, the MIC in data set [16] was 27 µM (≈ 7.81 µg/mL). Moreover, in data set [17], the MIC came out at 13.5 µM (≈ 3.91 µg/mL). Besides, the IC50 in data set [18] is 82.4 µM. Further, in [3], the MIC is 43.2 µM (≈ 12.5 µg/mL). Also, the MIC in data set [19] (24h incubation) was above 500 µM. In data set [19] (48h incubation), the MIC is above 500 µM. The MIC in data set [20] (24h incubation) is above 500 µM. Also, in [20] (48h incubation), the MIC is above 500 µM. Moreover, the MIC in data set [21] (24h incubation) is above 500 µM. For the same compound, the MIC in data set [21] (48h incubation) is above 500 µM. Also, the MIC in data set [22] was 108 µM (≈ 31.3 µg/mL). Further, the MIC in data set [23] (24h incubation) is above 500 µM. Also, in data set [23] (48h incubation), the MIC was above 500 µM. In addition, the MIC in [24] (24h incubation) is above 500 µM. Further, in [24] (48h incubation), the MIC was above 500 µM. In addition, the MIC in [25] (24h incubation) is above 500 µM. Also, in [25] (48h incubation), the MIC is above 500 µM. Besides, the MIC in [26] (24h incubation) is above 500 µM. Further, the MIC in data set [26] (48h incubation) is above 500 µM. The MIC in data set [27] is 54 µM (≈ 15.6 µg/mL). The MIC in data set [28] (24h incubation) was above 500 µM. The MIC in [28] (48h incubation) was above 500 µM. Further, in data set [6], the MIC is 43.2 µM (≈ 12.5 µg/mL).

In the case of `OB1OCc2ccccc21` [Compound C00021, (3H)-Benzo[c][1,2]oxaborol-1-ol], the “MIC Mtb H37Rv” value in data set [29] is listed as 55.99 * µM.

Turning to `NNC(=O)c1ccncc1` [INH, isoniazid, reference compound], the MIC was 2.84 µM (≈ 0.389 µg/mL) in data set [2]; 228 µM (≈ 31.3 µg/mL) in data set [8]; 3.65 µM (≈ 0.501 µg/mL) in data set [16]; 28.5 µM (≈ 3.91 µg/mL) in data set [17]; above 91.2 µM in data set [3]; 45.6 µM (≈ 6.25 µg/mL) in data set [22]. Also, the MIC was determined as 7290 µM (≈ 1000 µg/mL) in data set [27] and 91.2 µM (≈ 12.5 µg/mL) in data set [6]. Further, the Concentration in data set [4] was above 58.33 µM. In addition, the Susceptibility entry in [4] and in data set [5] was “resistant” in each case.

As for “3-aminomethylbenzoxaborole [Compound C00022]”, the “MIC Mtb H37Rv” value in [29] is 11.04 * µM.
